Reference: patent publication US20160030415A1, “TREATMENT AND PROPHYLAXIS OF KIDNEY DISEASES” (priority 2013, published 2016)

How the values were obtained:
[1] = test system: STZ induced diabetic nephropathy in rats; assay: Study 3: HCQ and its combination with Losartan, Telmisartan, Azilsartan and Ramipril; format: in vivo, Wistar rats; conditions: oral once daily 8 weeks
Description: The methods described in Terri et al, Diabetes Volume, 1997, 46:1612-1618, and Takashi et al, Jpn J. Pharmacol, 1997, 75, 59-64, were followed for inducing Diabetes in rats by injecting Streptozotocin. The Efficacy of the drugs was tested in two different models, one involving comparison with diabetic control (i.e. Diabetic Rats not treated with any medication) and the other involving comparison with the anti-diabetic control group (i.e. Diabetic rats administered Glimepiride) in two separate studies.
Male Wistar rats weighing 150-350 g were divided randomly into 29 groups consisting of 6 animals each. Diabetes was induced in rats by single administration of streptozotocin (55 mg/kg/i.p) dissolved in 0.1 M-citrate buffer, pH 4.5. Group 1 (normal control) consisted of normal rats that neither received streptozotocin nor any test drug; Group 2 consisted of normal rats treated with vehicle, Group 3 served as Streptozotocin (STZ) induced diabetic control. Group 4 was diabetic rats treated with Losartan (LT) (5.5 mg/kg); Group 5 was diabetic rats treated with LT (11 mg/kg); Group 6 was diabetic rats treated with Hydroxychloroquine (HCQ) (22.5 mg/kg), Group 7 was diabetic rats treated with HCQ (45 mg/kg); Group 8 was diabetic rats treated with combination of LT (5.5 mg/kg) and HCQ (22.5 mg/kg); Group 9 was diabetic rats treated with combination of LT (5.5 mg/kg) and HCQ (45 mg/kg); Group 10 was diabetic rats treated with LT (11 mg/kg) and HCQ (22.5 mg/kg); Group 11 was diabetic rats treated with LT (11 mg/kg) and HCQ (45 mg/kg); Group 12 was diabetic rats treated with Telmisartan (TL) (5 mg/kg); Group 13 was diabetic rats treated with Telmisartan (TL) (10 mg/kg); Group 14 was diabetic rats treated with the combination of TL (5 mg/kg) and HCQ (22.5 mg/kg); Group 15 was diabetic rats treated with the combination of TL (5 mg/kg) and HCQ (45 mg/kg); Group 16 was diabetic rats treated with the combination of TL (10 mg/kg) and HCQ (22.5 mg/kg); Group 17 was diabetic rats treated with the combination of TL (10 mg/kg) and HCQ (45 mg/kg); Group 18 was diabetic rats treated with Azilsartan (AZ) (2 mg/kg); Group 19 was diabetic rats treated with Azilsartan (AZ) (4 mg/kg); Group 20 was diabetic rats treated with combination of AZ (2 mg/kg) and HCQ (22.5 mg/kg); Group 21 was diabetic rats treated with combination of AZ (2 mg/kg) and HCQ (45 mg/kg); Group 22 was diabetic rats treated with combination of AZ (4 mg/kg) and HCQ (22.5 mg/kg); Group 23 diabetic rats treated with combination of AZ (4 mg/kg) and HCQ (45 mg/kg); Group 24 was diabetic rats treated with Ramipril (RM) (0.2 mg/kg); Group 25 was diabetic rats treated with RM (2.3 mg/kg); Group 26 was diabetic rats treated with combination of RM […]) and HCQ (22.5 mg/kg); Group 27 was diabetic rats treated with combination of RM (0.2 mg/kg) and HCQ (45 mg/kg); Group 28 was diabetic rats treated with combination of RM (2.3 mg/kg) and HCQ (22.5 mg/kg); Group 29 was diabetic rats treated with combination of RM (2.3 mg/kg) and HCQ (45 mg/kg). The study drugs (LT and HCQ) were dissolved in distilled water and other study drugs (AZ, RM and TL) were suspended in 0.5% w/v sodium carboxy methyl cellulose (CMC) and administered orally once a day for eight weeks. Biochemical parameters like serum urea, serum creatinine, serum protein, and renal oxidative stress parameters like TBARS and GSH were assessed after the completion of eighth week of the study.

[2] = test system: Streptozocin (STZ) induced diabetic rats; assay: Study 1: HCQ and its combination with Losartan in renal damage, comparison with diabetic control; format: in vivo, Wistar rats; conditions: after 8 weeks oral once daily, Losartan 5.5 mg/kg, Hydroxychloroquine 22.5 mg/kg; for GSH (% Naive) / GSH Mean ± SEM / TBARS (% Naive) / TBARS Mean ± SEM: kidney homogenate
Description: The Efficacy of the drugs was tested in two different models, one involving comparison with diabetic control (i.e. Diabetic Rats not treated with any medication) and the other involving comparison with the anti-diabetic control group (i.e. Diabetic rats administered Glimepiride) in two separate studies. 25 male Wistar rats weighing 150-250 g were divided randomly into 5 groups consisting of 5 animals each. Diabetes was induced in rats by single administration of streptozotocin (55 mg/kg/i.p) dissolved in 0.1 M-citrate buffer, pH 4.5. Group 1 (normal control) consisted of normal rats that neither received Streptozotocin (STZ) nor any test drug; Group 2 served as streptozotocin induced diabetic control. Group 3 was diabetic rats treated with Losartan (LT) (5.5 mg/kg); Group 4 was diabetic rats treated with Hydroxychloroquine (HCQ) (22.5 mg/kg), Group 5 was diabetic rats treated with combination of HCQ (22.5 mg/kg) and LT (5.5 mg/kg). The study drugs were dissolved/suspended in distilled water and administered orally once a day for eight weeks. Blood glucose levels and renal oxidative stress parameters including TBARS, GSH and total Protein in Kidney Homogenate were assessed after the completion of eighth week of the study.

[3] = dose mg/kg: LT 5.5, TL 5, AZ 2, RM 0.2, HCQ 22.5, alone or combined with HCQ 22.5
[4] = dose mg/kg: LT 11, TL 10, AZ 4, RM 2.3, HCQ 45, alone or combined with HCQ 45

Compound	Creatinine clearance [1, 3] [mL/min]	GSH [1, 3] [nM/mg]	Serum creatinine [1, 3] [mg/dL]	Serum protein [1, 3] [g/dL]	Serum urea [1, 3] [mg/dL]	TBARS [1, 3] [nM/mg]	Urea clearance [1, 3] [mL/min]	Creatinine clearance [1, 4] [mL/min]	GSH [1, 4] [nM/mg]	Serum creatinine [1, 4] [mg/dL]	Serum protein [1, 4] [g/dL]	Serum urea [1, 4] [mg/dL]	TBARS [1, 4] [nM/mg]	Urea clearance [1, 4] [mL/min]	Blood glucose level (% Control) [2]	Blood glucose level Mean ± SEM [2]	Total Protein in Kidney Homogenate (% Naive) [2]	Total Protein in Kidney Homogenate Mean ± SEM [2] [µg/mL]	GSH (% Naive) [2]	GSH Mean ± SEM [2] [nM/mg]	further results
CCN(CCO)CCCC(C)Nc1ccnc2cc(Cl)ccc12 (centres unmarked) [Hydroxychloroquine, 2-[{4-[(7-chloroquinolin-4-yl)amino]pentyl}(ethyl)amino]ethanol]	0.60 ± 0.06	8.59 ± 0.76	0.87 ± 0.07	5.57 ± 0.20	91.29 ± 7.29	0.726 ± 0.06	0.36 ± 0.03	0.67 ± 0.10	14.29 ± 1.33	0.74 ± 0.12	5.95 ± 0.31	83.64 ± 6.60	0.608 ± 0.06	0.42 ± 0.04	(62.64)) % Control	369.9 ± 42.3 mg/dL	(190.71) % Naive	1098.00 ± 23.12	(41.92) % Naive	0.827 ± 0.08	TBARS (% Naive) [2]: (178.29) % Naive; TBARS Mean ± SEM [2]: 0.772 ± 0.06 nM/mg
CCCc1nc2c(C)cc(-c3nc4ccccc4n3C)cc2n1Cc1ccc(-c2ccccc2C(=O)O)cc1 [Telmisartan]	0.73 ± 0.07	9.65 ± 1.24	1.02 ± 0.13	5.94 ± 0.46	92.39 ± 4.06	0.675 ± 0.07	0.45 ± 0.05	0.77 ± 0.04	13.82 ± 0.34	0.78 ± 0.07	6.53 ± 0.40	82.71 ± 6.53	0.560 ± 0.06	0.47 ± 0.04							
CCOc1nc2cccc(C(=O)O)c2n1Cc1ccc(-c2ccccc2-c2nc(=O)o[nH]2)cc1 [Azilsartan]	0.69 ± 0.05	9.54 ± 1.54	0.98 ± 0.07	5.79 ± 0.37	89.83 ± 4.67	0.624 ± 0.11	0.41 ± 0.07	0.74 ± 0.04	13.49 ± 0.90	0.87 ± 0.04	6.76 ± 0.16	75.94 ± 4.11	0.540 ± 0.04	0.44 ± 0.03							
CCOC(=O)[C@H](CCc1ccccc1)N[C@@H](C)C(=O)N1[C@H](C(=O)O)C[C@@H]2CCC[C@@H]21 [Ramipril]	0.54 ± 0.05	8.48 ± 0.59	0.90 ± 0.05	5.30 ± 0.36	98.33 ± 6.15	0.716 ± 0.06	0.41 ± 0.05	0.61 ± 0.07	10.57 ± 0.37	0.85 ± 0.06	5.67 ± 0.27	87.83 ± 5.23	0.614 ± 0.06	0.45 ± 0.05							
CCCCc1nc(Cl)c(CO)n1Cc1ccc(-c2ccccc2-c2nn[nH]n2)cc1 [Losartan]	0.59 ± 0.06	8.66 ± 0.48	1.23 ± 0.18	5.23 ± 0.31	101.45 ± 2.69	0.760 ± 0.05	0.33 ± 0.02	0.67 ± 0.12	12.78 ± 1.48	0.99 ± 0.05	5.75 ± 0.23	93.10 ± 4.45	0.670 ± 0.05	0.44 ± 0.03	(98.57) % Control	582.1 ± 00^ mg/dl	(204.95) % Naive	1180.00	(41.92) % Naive	0.827	TBARS (% Naive) [2]: (186.61) % Naive; TBARS Mean ± SEM [2]: 0.808 nM/mg
